Assay [1] deals with NCI-H358 (KRAS G12C mutation). In words: Proliferation inhibition measured by CTG, NCI-H358. The format is cell-based, human. Particulars: Homo sapiens, NCI-H358, 120 h, CellTiter Glo, 120 hours incubation. The protocol: (§1) NCI-H358 is a human non-small cell lung cancer cell line with KRAS G12C mutation; AGS is a gastric cancer cell line with KRAS G12D mutation; SW480 is a colon cancer cell lines with KRAS G12V mutation; A375 is a wild type malignant melanoma cell line. The proliferation inhibitory effect of the compounds on various mutations was evaluated by determining the proliferation inhibitory activity of the compounds on these cell lines.
(§2) The assay was conducted on either 384-well plates or 96-well plates. The procedures are as follows:
(§3) The cell suspensions were added to 384- or 96-well plates (384-well plate: 40 μL; 96-well plate: 100 μL) except for peripheral wells. The plates were incubated in a carbon dioxide incubator overnight. Prepared compounds (10 concentration gradients by serial 3-fold dilution) were added to the wells. The cell plates were incubated in a carbon dioxide incubator for 120 hours. CellTiter Glo reagent (384 well plate: 25 μL; 96 well plate: 100 μL) was added to the 384- or 96-well plates. The plates were shaken for 10 minutes away from light, and incubated for 10 minutes. The plates were read by EnVision system. Inhibition curves were plotted using XLFit and IC50 values were calculated. “IC50>10 μM” is denoted by “*”, “10 μM≥IC50>1 μM” is denoted by […] is denoted by “***”, “---” means no data.
A general note: In ATP-based viability assays light output follows the ATP content of the culture.

The test system of assay [2] is SW480 (colon cancer cell lines with KRAS G12V mutation). In words: Proliferation inhibition measured by CTG, SW480. Particulars: Homo sapiens, SW480, 120 h, CellTiter Glo, 120 hours incubation. The format is cell-based. The protocol:
as §1, §2, §3

Assay [3] concerns A375 (wild type malignant melanoma cell line). In words: Proliferation inhibition measured by CTG, A375. The format is cell-based. Particulars: Homo sapiens, A-375, 120 h, CellTiter Glo, 120 hours incubation. The protocol:
as §1, §2, §3

Assay [4] concerns AGS (gastric cancer cell line with KRAS G12D mutation). In words: Proliferation inhibition measured by CTG, AGS. The format is cell-based. The conditions noted are these: 120 h, CellTiter Glo, 120 hours incubation. The protocol:
as §1, §2, §3

We go through nine molecules from US20230242552A1, “Nitrogen-Containing Heterocyclic Compound, Preparation Method Therefor and Use Thereof” (280 Bio, Inc, priority 2022, published 2023).

What is called IC50 is the concentration that gives 50% inhibition. The low end stands for higher potency, the high end for lower potency.

In the case of `C[C@H]1Cc2cncc(F)c2CN1c1nc(OC[C@@H]2CN(C)CCN2C)nc2c1CCN(c1cccc3cccc(F)c13)C2` [Compound 25], the 50% inhibitory concentration (IC50) in assay [1], in assay [2], in assay [3] and in assay [4] was 1000 to 10000 nM each time.
For `C[C@@H](CN(C)C)Oc1nc2c(c(N3Cc4c(F)cncc4C[C@@H]3C)n1)CCN(c1cccc3cccc(F)c13)C2` [Compound 26], the IC50 in assay [1], in assay [2], in assay [3] and in assay [4] was 1000 to 10000 nM each time.
With `C[C@@H]1Cc2cncc(F)c2CN1c1nc(OC[C@@H]2CCCN2C)nc2cc(-c3ccc(F)c4sc(N)nc34)ccc12` [Compound 27], the concentration for half-maximal inhibition (IC50) in assay [1], in assay [2], in assay [3] and in assay [4] was at most 1000 nM each time.
Regarding `C[C@@H]1Cc2cncc(F)c2CN1c1nc(OC[C@@H]2CCCCN2C)nc2c1CCN(c1cccc3cccc(F)c13)C2` [Compound 28], the 50% inhibitory concentration (IC50) in assay [1], in assay [2], in assay [3] and in assay [4] was at most 1000 nM throughout.
For the molecule `C[C@@H]1Cc2cncc(F)c2CN1c1nc(O[C@@H](C)CN(C)C)nc2c1CCN(c1cccc3cccc(F)c13)C2` [Compound 29], the IC50 in assay [1] was at most 1000 nM; in assay [2] it was at most 1000 nM; in assay [3], 1000 to 10000 nM; in assay [4] it was at most 1000 nM.
Regarding `C[C@@H]1Cc2cncc(F)c2CN1c1nc(OC[C@H]2CCCCN2C)nc2c1CCN(c1cccc3cccc(F)c13)C2` [Compound 30], the half-maximal inhibitory concentration (IC50) in assay [1], in assay [2], in assay [3] and in assay [4] was at most 1000 nM in each case.
On to `C[C@@H]1Cc2cncc(F)c2CN1c1nc(OC[C@H]2CCCN2C)nc2c1CCN(c1cccc3cccc(F)c13)C2` [Compound 31], for which the IC50 in assay [1], in assay [2], in assay [3] and in assay [4] was at most 1000 nM in each case.
Consider `C[C@@H]1Cc2cncc(F)c2CN1c1nc(OC[C@@H]2CCCN2C)nc2c1CCN(c1cccc3cccnc13)C2` [Compound 32], for which the IC50 in assay [1], in assay [2], in assay [3] and in assay [4] was at most 1000 nM throughout.
In the case of `C[C@@H]1Cc2cncc(F)c2CN1c1nc(OC[C@@H]2CCCN2C)nc2cc(-c3cccc4cccnc34)ccc12` [Compound 33], the concentration for half-maximal inhibition (IC50) in assay [1], in assay [2], in assay [3] and in assay [4] was at most 1000 nM in each case.
